The values below come from patent US20140329177A1, “CYCLIC COMPOUND, METHOD FOR PRODUCING SAME, RADIATION-SENSITIVE COMPOSITION, AND RESIST PATTERN FORMATION METHOD” (MITSUBISHI GAS CHEMICAL COMPANY, INC., priority 2011, published 2014).

The nature of this data set: Solubility test of compound in safe solvent. Particulars: 23° C.; for dissolution amount in CHN: cyclohexanone (CHN); for dissolution amount in PGME: propylene glycol monomethyl ether (PGME). It is filed as physicochemical. The protocol: The dissolution amounts of compounds obtained in the above synthesis examples 1 to 4 and syntheses 1 and 2 in propylene glycol monomethyl ether (PGME) and cyclohexanone (CHN) were evaluated as follows.
A: 5.0% by mass≦dissolution amount B: 3.0% by mass≦dissolution amount<5.0% by mass C: dissolution amount<3.0% by mass
dissolution amount (% by mass)=mass (g) of compound dissolved in 100 g of solvent of 23° C./(100 g of mass of solvent+mass (g) of compound dissolved in 100 g of solvent of 23° C.)×100

For the molecule `CC(C)c1ccc(C2c3cc(c(O)cc3O)C(c3ccc(C(C)C)cc3)c3cc(c(O)cc3O)C(c3ccc(C(C)C)cc3)c3cc(c(O)cc3O)C(c3ccc(C(C)C)cc3)c3cc2c(O)cc3O)cc1` (stereo not shown) [CR-1A], the “dissolution amount in CHN” value is listed as “C (dissolution amount<3.0% by mass)” and the “dissolution amount in PGME” value is reported as “B (3.0% by mass≦dissolution amount<5.0% by mass)”.
On to `Oc1cc(O)c2cc1C(c1ccc(C3CCCCC3)cc1)c1cc(c(O)cc1O)C(c1ccc(C3CCCCC3)cc1)c1cc(c(O)cc1O)C(c1ccc(C3CCCCC3)cc1)c1cc(c(O)cc1O)C2c1ccc(C2CCCCC2)cc1` (stereo not shown) [CR-2A], for which the “dissolution amount in CHN” value is on record as “B (3.0% by mass≦dissolution amount<5.0% by mass)” and the “dissolution amount in PGME” value is given as “B (3.0% by mass≦dissolution amount<5.0% by mass)”.
